Laboratory results taken from ChEMBL document CHEMBL3046431, “Novel 4H-1,2,4-triazol-3-yl cycloalkanols as potent antitubercular agents” (Med Chem Res, 2013).
Values after ≈ are worked out from the molar mass of the structure shown.

Assays:
[1] = Selectivity index, ratio of CC50 for african green monkey Vero C1008 cells to MIC for Mycobacterium tuberculosis H37Rv; assay type: toxicity, cell-based; conditions: read-out: Selectivity Index
[2] = Cytotoxicity against Chlorocebus aethiops (African green monkey) Vero C1008 cells assessed as cell viability after 72 hr by MTT assay; assay type: cell-based; conditions: chlorocebus sabaeus
[3] = tested on: Mycobacterium tuberculosis; assay: Antitubercular activity against Mycobacterium tuberculosis H37Rv assessed as growth inhibition after 7 days by resazurin microplate assay; assay type: functional; conditions: 168 h

`Oc1ccc(-c2nnc(C3(O)CCCCC3)[nH]2)cc1` gave a selectivity ratio [1] of 45, a CC50 at 72 h [2] of 340 µg/mL (≈ 1310 µM) and an MIC [3] of 7.5 µg/mL (≈ 28.9 µM).

In the case of `Cc1nnc(C2(O)CC(C)CC(C)(C)C2)[nH]1` (stereo unspecified), the selectivity ratio [1] is reported as 84, the CC50 at 72 h [2] is reported as 380 µg/mL (≈ 1700 µM) and the MIC [3] is reported as 4.5 µg/mL (≈ 20.2 µM).

With `Cc1nnc(C2(O)CCCCC2)[nH]1` the selectivity ratio [1] was 63, the CC50 at 72 h [2] was 392 µg/mL (≈ 2160 µM) and the MIC [3] was 6.25 µg/mL (≈ 34.5 µM).

`Cc1csc(-c2nnc(C3(O)CCCCC3)[nH]2)c1` showed a selectivity ratio [1] of 226, a CC50 at 72 h [2] of 373 µg/mL (≈ 1420 µM) and an MIC [3] of 1.65 µg/mL (≈ 6.27 µM).

In the case of `Cc1csc(-c2nnc(C3(O)C4CC5CC(C4)CC3C5)[nH]2)c1` (stereo unspecified), the selectivity ratio [1] is reported as 84, the CC50 at 72 h [2] is reported as 356 µg/mL (≈ 1130 µM) and the MIC [3] is reported as 4.25 µg/mL (≈ 13.5 µM).

`CC1CCC(O)(c2nnc(-c3ccncc3)[nH]2)CC1` (stereo unspecified) showed a selectivity ratio [1] of 424, a CC50 at 72 h [2] of 403 µg/mL (≈ 1560 µM) and an MIC [3] of 0.95 µg/mL (≈ 3.68 µM).

For `Cc1nnc(C(O)C2CC=CCC2)[nH]1` (stereo unspecified), the selectivity ratio [1] was 62, the CC50 at 72 h [2] was 318 µg/mL (≈ 1650 µM) and the MIC [3] was 5.15 µg/mL (≈ 26.6 µM).

With `OC1(c2nnc(-c3cccnc3)[nH]2)CCCCC1` the selectivity ratio [1] was 88, the CC50 at 72 h [2] was 397 µg/mL (≈ 1630 µM) and the MIC [3] was 4.5 µg/mL (≈ 18.4 µM).

`OC1CCC(C(O)c2nnc(-c3ccccc3)[nH]2)CC1O` (stereo unspecified) showed a selectivity ratio [1] of 55, a CC50 at 72 h [2] of 429 µg/mL (≈ 1480 µM) and an MIC [3] of 7.75 µg/mL (≈ 26.8 µM).

With `OC1(c2nnc(-c3ccncc3)[nH]2)CCCCC1` the selectivity ratio [1] was 698, the CC50 at 72 h [2] was 412 µg/mL (≈ 1690 µM) and the MIC [3] was 0.59 µg/mL (≈ 2.42 µM).

`OC1CCC(C(O)c2nnc(-c3ccncc3)[nH]2)CC1O` (stereo unspecified) gave a selectivity ratio [1] of 477, a CC50 at 72 h [2] of 429 µg/mL (≈ 1480 µM) and an MIC [3] of 0.9 µg/mL (≈ 3.1 µM).

`OC(c1nnc(-c2ccncc2)[nH]1)C1CC=CCC1` (stereo unspecified) showed a selectivity ratio [1] of 310, a CC50 at 72 h [2] of 388 µg/mL (≈ 1510 µM) and an MIC [3] of 1.25 µg/mL (≈ 4.88 µM).

Compound `OC1(c2nnc(-c3ccncc3)[nH]2)CCCC1` has a selectivity ratio [1] of 490, a CC50 at 72 h [2] of 382 µg/mL (≈ 1660 µM) and an MIC [3] of 0.78 µg/mL (≈ 3.39 µM).

`CC1CC(C)(C)CC(O)(c2nnc(-c3ccccc3)[nH]2)C1` (stereo unspecified) gave a selectivity ratio [1] of 25, a CC50 at 72 h [2] of 383 µg/mL (≈ 1340 µM) and an MIC [3] of 15.4 µg/mL (≈ 53.8 µM).

`CC1CC(C)(C)CC(O)(c2nnc(-c3ccc(O)cc3)[nH]2)C1` (stereo unspecified) gave a selectivity ratio [1] of 33, a CC50 at 72 h [2] of 352 µg/mL (≈ 1170 µM) and an MIC [3] of 10.5 µg/mL (≈ 34.8 µM).

Compound `CC1CC(C)(C)CC(O)(c2nnc(-c3ccncc3)[nH]2)C1` (stereo unspecified) has a selectivity ratio [1] of 637, a CC50 at 72 h [2] of 414 µg/mL (≈ 1450 µM) and an MIC [3] of 0.65 µg/mL (≈ 2.27 µM).

Compound `OC(c1nnc(-c2ccccc2)[nH]1)C1CC=CCC1` (stereo unspecified) has a selectivity ratio [1] of 29, a CC50 at 72 h [2] of 358 µg/mL (≈ 1400 µM) and an MIC [3] of 12.5 µg/mL (≈ 49 µM).

With `Oc1ccc(-c2nnc(C3(O)CCCC3)[nH]2)cc1` the selectivity ratio [1] was 108, the CC50 at 72 h [2] was 347 µg/mL (≈ 1410 µM) and the MIC [3] was 3.2 µg/mL (≈ 13 µM).

In the case of `OC(c1nnc(-c2cccnc2)[nH]1)C1CC=CCC1` (stereo unspecified), the selectivity ratio [1] is reported as 44, the CC50 at 72 h [2] is reported as 371 µg/mL (≈ 1450 µM) and the MIC [3] is reported as 8.5 µg/mL (≈ 33.2 µM).

Work on `NNC(=O)c1ccncc1` [ISONIAZID] yielded a selectivity ratio [1] of 499 and an MIC [3] of 0.4 µg/mL (≈ 2.92 µM).

`OC1(c2nnc(-c3ccccc3)[nH]2)CCCCC1` gave a selectivity ratio [1] of 34, a CC50 at 72 h [2] of 422 µg/mL (≈ 1730 µM) and an MIC [3] of 12.4 µg/mL (≈ 50.8 µM).

Work on `CC1CC(C)(C)CC(O)(c2nnc(-c3cccnc3)[nH]2)C1` (stereo unspecified) yielded a selectivity ratio [1] of 29, a CC50 at 72 h [2] of 368 µg/mL (≈ 1290 µM) and an MIC [3] of 12.5 µg/mL (≈ 43.6 µM).

`Cc1nnc(C(O)C2CCC(O)C(O)C2)[nH]1` (stereo unspecified) gave a selectivity ratio [1] of 116, a CC50 at 72 h [2] of 378 µg/mL (≈ 1660 µM) and an MIC [3] of 3.25 µg/mL (≈ 14.3 µM).

Compound `CC1CCC(O)(c2nnc(-c3ccccc3)[nH]2)CC1` (stereo unspecified) has a selectivity ratio [1] of 28, a CC50 at 72 h [2] of 437 µg/mL (≈ 1700 µM) and an MIC [3] of 15.5 µg/mL (≈ 60.2 µM).
